Literature values, collected in patent US20230099183A1, “STEVIOL GLYCOSIDE AND GLYCERIN FORMULATIONS FOR FOOD AND BEVERAGES” (Sweegen, Inc., priority 2021, published 2023).

Legend:
[1] = background statement on natural steviol glycosides
[2] = background statement; concentration in food or beverage

Row | Molecule | degree of sweetness, times sweeter than sucrose [1] | concentration above which bitterness is perceptible [2]
1 | Rebaudioside C | 40-60 times sweeter than sucrose | –
2 | C=C1C[C@@]23CC[C@H]4[C@@](C)(CCC[C@@]4(C)C(=O)O[C@@H]4O[C@H](CO)[C@@H](O)[C@H](O)[C@H]4O)[C@@H]2CC[C@]1(O[C@@H]1O[C@H](CO)[C@@H](O)[C@H](O)[C@H]1O[C@@H]1O[C@@H](C)[C@H](O)[C@@H](O)[C@H]1O)C3 [Dulcoside A] | about 30 times sweeter than sucrose | –
3 | C=C1C[C@@]23CC[C@H]4[C@@](C)(CCC[C@@]4(C)C(=O)O[C@@H]4O[C@H](CO)[C@@H](O)[C@H](O)[C@H]4O)[C@@H]2CC[C@]1(O[C@@H]1O[C@H](CO)[C@@H](O)[C@H](O[C@@H]2O[C@H](CO)[C@@H](O)[C@H](O)[C@H]2O)[C@H]1O[C@@H]1O[C@H](CO)[C@@H](O)[C@H](O)[C@H]1O)C3 [Reb A] | – | above 200 ppm
4 | C=C1C[C@@]23CC[C@H]4[C@@](C)(CCC[C@@]4(C)C(=O)O[C@@H]4O[C@H](CO)[C@@H](O)[C@H](O)[C@H]4O)[C@@H]2CC[C@]1(O[C@@H]1O[C@H](CO)[C@@H](O)[C@H](O)[C@H]1O[C@@H]1O[C@H](CO)[C@@H](O)[C@H](O)[C@H]1O)C3 [stevioside] | 100-150 times sweeter than sucrose | –
